According to the NIST ThermoML archive (doi:10.1021/acs.jced.6b00606):

Columns and labels:
[1] = xn = mol fraction of the nth substance listed; conditions: 100 kPa, Liquid; for speed of sound: Frequency=3 MHz, Sing-around technique in a fixed-path interferometer; for mass density: Vibrating tube method
[2] = excess molar enthalpy (molar enthalpy of mixing); xn = mol fraction of the nth substance listed; conditions: 308.15 K, 1e-07 kPa, Liquid, Calvet calorimetry

O=C1CCCCCC1 [cycloheptanone] + C1CCOCC1
[1]
Conditions	mass density, 293.15 K [kg/m3]	mass density, 298.15 K [kg/m3]	mass density, 303.15 K [kg/m3]	mass density, 308.15 K [kg/m3]	speed of sound, 293.15 K [m/s]	speed of sound, 298.15 K [m/s]	speed of sound, 303.15 K [m/s]	speed of sound, 308.15 K [m/s]
x2 = 0.0845	948.05	943.9	939.65	935.43	1457.2	1435	1411.9	1389.1
x2 = 0.1276	946.02	941.88	937.63	933.42	1447.3	1424.9	1401.8	1378.9
x2 = 0.1794	943.48	939.35	935.11	930.88	1435.5	1413	1389.8	1366.9
x2 = 0.2172	941.57	937.43	933.19	928.95	1427.2	1404.5	1381.3	1358.4
x2 = 0.254	939.66	935.51	931.26	927.02	1419.2	1396.5	1373.2	1350.2
x2 = 0.3098	936.64	932.46	928.23	923.95	1407.4	1384.5	1361.1	1338.2
x2 = 0.341	934.9	930.72	926.47	922.18	1400.9	1378	1354.6	1331.6
x2 = 0.3982	931.59	927.36	923.12	918.8	1389.4	1366.4	1342.9	1319.9
x2 = 0.4407	929.02	924.78	920.53	916.18	1381.2	1358	1334.6	1311.6
x2 = 0.4986	925.38	921.12	916.82	912.46	1370.2	1346.9	1323.6	1300.6
x2 = 0.5312	923.24	918.96	914.66	910.27	1364.3	1340.9	1317.5	1294.6
x2 = 0.5779	920.07	915.78	911.43	907.03	1355.9	1332.6	1309.2	1286.3
x2 = 0.6295	916.42	912.11	907.7	903.26	1347.1	1323.7	1300.3	1277.4
x2 = 0.6717	913.29	908.95	904.49	900.02	1340.1	1316.6	1293.3	1270.5
x2 = 0.7229	909.34	904.97	900.41	895.9	1331.9	1308.4	1285.2	1262.4
x2 = 0.7686	905.66	901.22	896.58	892.03	1324.8	1301.4	1278.2	1255.4
x2 = 0.8202	901.28	896.77	892.03	887.39	1317.2	1293.7	1270.6	1247.9
x2 = 0.8742	896.48	891.84	886.98	882.23	1309.5	1286.1	1263	1240.4

[2]
Conditions	excess molar enthalpy [kcal/mol]
x2 = 0.0898	0.0131
x2 = 0.1356	0.0179
x2 = 0.1846	0.0214
x2 = 0.2366	0.025
x2 = 0.2882	0.0271
x2 = 0.3312	0.0284
x2 = 0.3942	0.0295
x2 = 0.4412	0.0298
x2 = 0.4895	0.0298
x2 = 0.5326	0.0295
x2 = 0.5842	0.0287
x2 = 0.6335	0.0277
x2 = 0.6875	0.0261
x2 = 0.7289	0.0245
x2 = 0.7789	0.022
x2 = 0.8278	0.0185
x2 = 0.8799	0.0146
x2 = 0.9199	0.0104
